Values quoted from earlier work as cited in patent US8377888B2, “Method of predicting the clinical response to cisplatin or carboplatin chemotherapeutic treatment” (Pangaea Biotech, S.A., priority 2005, dated 2013).

What was measured:
[1] = test system: non-small cell lung cancer (NSCLC); conditions: per arm of randomized study
[2] = test system: MKN74 (14-3-3σ methylation-positive, wild-type p53)
[3] = test system: MKN28 (14-3-3σ methylation-positive, mutated p53)
[4] = test system: 14-3-3σ methylation-negative cell lines; conditions: wild-type or mutated p53
[5] = test system: Colon carcinoma cells lacking 14-3-3σ; conditions: cells initiate but do not maintain G2 arrest

Compound | Median survival [1] [months] | Sensitivity to adriamycin [2] | Sensitivity to adriamycin [3] | Sensitivity to adriamycin [4] | Cell fate after adriamycin treatment [5]
paclitaxel/carboplatin | 8.2 | – | – | – | –
COc1cccc2c1C(=O)c1c(O)c3c(c(O)c1C2=O)C[C@@](O)(C(=O)CO)C[C@@H]3O[C@H]1C[C@H](N)[C@H](O)[C@H](C)O1 [adriamycin] | – | highly sensitive | highly sensitive | resistant | mitotic catastrophe and cell death
